The term IC50 denotes the concentration needed to halve the response being measured.

The source of these data is US20240350458A1, “14-3-3 PROTEIN MODULATORS AS ANTITUMOR AGENTS” (priority 2021, published 2024).

Like-named read-outs stand apart in the source and are kept apart here.

What all share (type): cell-based
The subject of test [1] is eight B-cell lymphoma cell lines. The experiment in a line: MTT proliferation assay, panel of eight B-cell lymphoma cell lines. To be noted: for activity in lymphoma cell lines: eight lymphoma cell lines. How it is done: (§1) All the above compounds were tested in vitro for their anticancer activity against a panel of eight B-cell lymphoma cell lines by MTT proliferation assay. The tested cell lines belonging to mantle cell lymphoma (MCL: REC1, Z138), activated B-cell diffuse large B-cell lymphoma (ABC-DLBCL: R11, HBL1, U2932, TMD8), germinal center B-cell diffuse large B-cell lymphoma (GCB-DLBCL: SU-DHL-10, FARAGE) subtypes. In overall, MCL cell lines present Cyclin D1 overexpression, while ABC- and GCB-DLBCL's proliferation is BCR and BCL6/HDACs driven, respectively. At the RNA level, all tested lymphoma cell lines were characterized by an overexpression of 14-3-3 zeta as reported for B-cell lymphomas resistant to chemotherapeutic regimen.
(In general: Tetrazolium assays rely on reduction of a dye to a coloured formazan, in cell work by metabolically active cells.)

In test [2] the test system is SUDHL10. The experiment in a line: MTT proliferation assay, B-cell lymphoma cell line. Particulars: Homo sapiens, SU-DHL10; SUDHL10, 72 h of drug incubation. How it is done: as §1
For test [3], the system named is REC1. Briefly: MTT proliferation assay, B-cell lymphoma cell line. Particulars: Homo sapiens; REC1, 72 h of drug incubation. How it is done:
as §1

The test system of test [4] is HBL1. The experiment in a line: MTT proliferation assay, B-cell lymphoma cell line. To be noted: HBL1, 72 h of drug incubation. How it is done: as §1
Test [5] has as its system FARAGE. The experiment in a line: MTT proliferation assay, B-cell lymphoma cell line. Particulars: 72 h of drug incubation. How it is done: as §1
Test [6] deals with Z138. Briefly: MTT proliferation assay, B-cell lymphoma cell line. Particulars: Homo sapiens, Z-138; Z138, 72 h of drug incubation. How it is done: as §1
The test system of test [7] is U2932. Briefly: MTT proliferation assay, B-cell lymphoma cell line. To be noted: Homo sapiens; U2932, 72 h of drug incubation. On the procedure: as §1
The test system of test [8] is TMD8. Briefly: MTT proliferation assay, B-cell lymphoma cell line. Particulars: Homo sapiens; TMD8, 72 h of drug incubation. On the procedure: as §1
Test [9] concerns RI1. The experiment in a line: MTT proliferation assay, B-cell lymphoma cell line. Particulars: Ri-1; RI1, 72 h of drug incubation. On the procedure:
as §1

In test [10] the test system is FRO. Briefly: MTT assay, ATC cell line, fixed concentrations. Particulars: Homo sapiens, 48 h, read-out: % of proliferating cells; for viability at 0.02 µM: 20 nM; for viability at 0.1 µM: 100 nM; for viability at 20 µM: 20000 nM. On the procedure: (§2) The compounds FC91, SB14, SB17, SB18, SB19, SB20, SB21 and FC85 were employed in a cellular screening at fixed concentration ranging from 20 nM to 20 μM.
(§3) Table 2: Four human thyroid cancer cell lines were incubated with FC91, SB14, SB17, SB18, SB19, SB20A, SB20b, SB21 and FC85 for 48 h at fixed concentration of 20,100 and 20000 nM and then assayed with MTT. Data are reported as % of proliferating cells.

Test [11] concerns Nthory. The experiment in a line: MTT assay, ATC cell line, fixed concentrations. Particulars: Homo sapiens, 48 h, read-out: % of proliferating cells; for viability at 0.02 µM: 20 nM; for viability at 0.1 µM: 100 nM; for viability at 20 µM: 20000 nM. How it is done:
as §2, §3

The subject of test [12] is SW1736. The experiment in a line: MTT assay, ATC cell line, fixed concentrations. Particulars: Homo sapiens, SW-1736, 48 h, read-out: % of proliferating cells; for viability at 0.02 µM: SW1736, 20 nM; for viability at 0.1 µM: SW1736, 100 nM; for viability at 20 µM: SW1736, 20000 nM. On the procedure:
as §2, §3

Test [13] relates to 8505c. Briefly: MTT assay, ATC cell line, fixed concentrations. To be noted: Homo sapiens, 48 h, read-out: % of proliferating cells; for viability at 0.02 µM: 20 nM; for viability at 0.1 µM: 100 nM; for viability at 20 µM: 20000 nM. On the procedure:
as §2, §3

Test [14] has as its system four human ATC cell lines. Briefly: Cellular screening in four human ATC cell lines.
Where [15] appears, read: human ATC cell lines, read-out: IC50 values in ATC cell lines.
Setting [16] is: Homo sapiens, in one (i.e. SB17) to four (i.e. SB20b) cell lines of anaplastic thyroid cancer, read-out: IC50 value in ATC cell lines.

Take `Cc1ccc(S(=O)(=O)Nc2ccc3c(c2)C(=Cc2nccn2C)C(=O)N3)cc1` (stereo in doubt) [FC91, N-{(3E)-3-[(1-methyl-1H-imidazol-2-yl)methylidene]-2-oxo-2,3-dihydro-1H-indol-5-yl}-4-methylbenzenesulfonamide]: the IC50 in test [1] (B-cell, read-out: IC50 in all eight lymphoma cell lines) is below 1000 nM; in test [2], 50 nM; in test [3], 50 nM; in test [4], 40 nM; in test [5], 25 nM; in test [6], 50 nM. Further, the IC50 in test [7] was 50 nM; in test [8], 50 nM; in [9], 30 nM; in test [14] (setting [15]), 100 to 200 nM. Moreover, the “IC50 in eight different lymphoma cell lines” value in test [1] (eight different lymphoma cell lines) is “nanomolar range”. In addition, the viability at 0.02 µM in test [10] was determined as 63%; in test [11], 84%; in test [12] it was 73%; in test [13] it was 79%. For the same compound, the viability at 0.1 µM in test [10] was 46%; in test [11], 55%; in [12], 52%; in test [13], 38%. The viability at 20 µM in [10] was determined as 55%; in [11], 47%; in test [12] it was 60%; in test [13], 48%.

Regarding `Cc1ccc(S(=O)(=O)Nc2ccc3c(c2)/C(=C/c2cnc(C)[nH]2)C(=O)N3)cc1` [SB14, (Z)-4-methyl-N-(3-((2-methyl-1H-imidazol-5-yl)methylene)-2-oxoindolin-5-yl)benzenesulfonamide], the viability at 0.02 µM in [10] amounted to 92%; in test [11], 95%; in test [12] it was 84%; in [13], 97%. The viability at 0.1 µM in [10] was 113%; in test [11], 77%; in [12] it was 102%; in test [13], 128%. For the same compound, the viability at 20 µM in test [10] was determined as 57%; in test [11], 41%; in test [12], 70%; in test [13], 65%. Also, in test [14] (setting [16]), the IC50 is 100 to 20000 nM.

Regarding `Cc1ccc(S(=O)(=O)Nc2ccc3c(c2)C(=Cc2cccnc2N)C(=O)N3)cc1` [SB20, N-(3-((2-aminopyridin-3-yl)methylene)-2-oxoindolin-5-yl)-4-methylbenzenesulfonamide], the IC50 in [14] (setting [16]) was in the range of 100 to 20000 nM.

In the case of `Cc1ccc(S(=O)(=O)Nc2ccc3c(c2)C(=Cc2cccnc2N)C(=O)N3)cc1` [SB20A, N-(3-((2-aminopyridin-3-yl)methylene)-2-oxoindolin-5-yl)-4-methylbenzenesulfonamide], the viability at 0.02 µM in test [10] stood at 85%; in [11], 99%; in test [12] it was 82%; in test [13], 78%. In addition, the viability at 0.1 µM in [11] is 77%; in test [12] it was 89%; in test [13], 99%. Besides, the viability at 20 µM came out at 63% in [11] and 35% in test [13].

As to `CS(=O)(=O)Nc1ccc2c(c1)/C(=C/c1cnc[nH]1)C(=O)N2` [FC100, reference compound], in [1], the “activity in lymphoma cell lines” value was “almost inactive”. Moreover, the IC50 in [2] is 19000 nM; in [3], 16000 nM; in [4] it was above 20000 nM; in test [5], above 20000 nM; in [6] it was 8000 nM; in test [7], above 20000 nM. For the same compound, the IC50 was above 20000 nM in test [8] and 5500 nM in test [9].

With `Cc1ccc(S(=O)(=O)Nc2ccc3c(c2)C(=C2c4ccccc4-c4ccccc42)C(=O)N3)cc1` [SB21, N-(3-(9H-fluoren-9-ylidene)-2-oxoindolin-5-yl)-4-methylbenzenesulfonamide], the viability at 0.02 µM was 93% in test [10], 91% in test [11], 108% in test [12] and 82% in test [13]. In addition, the viability at 0.1 µM in [10] was 114%; in [11], 94%; in [12] it was 103%; in [13], 134%. Besides, the viability at 20 µM in test [10] was 60%; in test [11], 15%; in test [12], 64%; in test [13], 37%. The IC50 in test [14] (setting [16]) lay in the range of 100 to 20000 nM.

On to `CS(=O)(=O)Nc1ccc2c(c1)/C(=C/c1cccs1)C(=O)N2` [FC96, reference compound], for which the “activity in lymphoma cell lines” value in test [1] was “almost inactive”. Moreover, the IC50 in test [2] is above 20000 nM; in test [3], 15000 nM; in [4], above 20000 nM; in test [5], above 20000 nM; in [6], above 20000 nM; in test [7], above 20000 nM. For the same compound, the values for the IC50 in test [8] and in test [9] were above 20000 nM and 20000 nM, respectively.

Turning to `Cc1ccc(S(=O)(=O)Nc2ccc3c(c2)/C(=C/c2ncc[nH]2)C(=O)N3)cc1` [SB19, (Z)—N-(3-((1H-imidazol-2-yl)methylene)-2-oxoindolin-5-yl)-4-methylbenzenesulfonamide], the viability at 0.02 µM in test [10] came to 78%; in [11], 81%; in [12], 80%; in test [13], 74%. Further, the viability at 0.1 µM is 74% in [10], 61% in [11], 85% in [12] and 74% in test [13]. The viability at 20 µM in test [10] was determined as 51%; in test [11], 43%; in test [12] it was 59%; in [13], 37%. Besides, the IC50 was 100 to 20000 nM in test [14] (setting [16]) and 100 to 200 nM in [14] (setting [15]).

As for `Cc1ccc(S(=O)(=O)Nc2ccc3c(c2)/C(=C/c2ccn[nH]2)C(=O)N3)cc1` [SB17, (Z)—N-(3-((1H-pyrazol-5-yl)methylene)-2-oxoindolin-5-yl)-4-methylbenzenesulfonamide], the viability at 0.02 µM in test [10] turned out to be 80%; in test [11], 89%; in [12] it was 81%; in [13], 90%. The viability at 0.1 µM in test [10] was 113%; in [11], 73%; in test [12], 99%; in test [13], 119%. The viability at 20 µM in [10] came out at 55%; in [11], 48%; in test [12], 63%; in [13], 59%. The IC50 in test [14] (setting [16]) fell in the range of 100 to 20000 nM.

On to `Cc1ccc(S(=O)(=O)Nc2ccc3c(c2)/C(=C/c2cn[nH]c2)C(=O)N3)cc1` [SB18, (E/Z)—N-(3-((1H-pyrazol-4-yl)methylene)-2-oxoindolin-5-yl)-4-methylbenzenesulfonamide], for which the viability at 0.02 µM in [10] stood at 77%; in [11], 54%; in [12], 77%; in [13], 80%. The viability at 0.1 µM is 54% in [10], 58% in test [11], 64% in test [12] and 48% in test [13]. For the same compound, the viability at 20 µM in [10] is 56%; in test [11] it was 34%; in test [12] it was 59%; in test [13] it was 42%. Also, the results for the IC50 in [14] (setting [16]) and in test [14] (setting [15]) were 100 to 20000 nM and 100 to 200 nM, respectively.
